Reference: publication PMC8523698, “Preclinical characterization of an intravenous coronavirus 3CL protease inhibitor for the potential treatment of COVID19” (Nature Communications, 2021)
Values joined by “and” are separate entries in the source; they are usually repeats but may differ in a detail not shown here. Equal entries are not always repeated.

Test system: HCoV-229E
Experiment: Viral CPE assay in MRC-5 cells (CellTiter Glo)
Type: cell-based

## COc1cccc2[nH]c(C(=O)N[C@@H](CC(C)C)C(=O)N[C@@H](C[C@@H]3CCNC3=O)C(=O)CO)cc12 [PF-00835231-00]
0.000938825 uM, minus efflux inhibitor, EC50 run 17-Apr-2020
  % Well Effect: -3.33% and -1.20%
0.000938825 uM, minus efflux inhibitor, EC50 run 24-Apr-2020
  % Well Effect: 15.19% and 11.15%
0.000949267 uM, minus efflux inhibitor, EC50 run 11-Apr-2020
  % Well Effect: 5.04% and 4.22% and -1.30% and -1.77%
0.00297326 uM, minus efflux inhibitor, EC50 run 17-Apr-2020
  % Well Effect: -5.19% and 4.25%
0.00297326 uM, minus efflux inhibitor, EC50 run 24-Apr-2020
  % Well Effect: 5.52% and -0.60%
0.00300158 uM, minus efflux inhibitor, EC50 run 11-Apr-2020
  % Well Effect: 4.34% and 3.84% and 1.15% and -4.56%
0.007813 uM, minus efflux inhibitor, EC50 run 30-Apr-2020
  % Well Effect: 0.98% and 0.83%
0.00941631 uM, minus efflux inhibitor, EC50 run 17-Apr-2020
  % Well Effect: 1.75% and 4.31%
0.0298215 uM, minus efflux inhibitor, EC50 run 17-Apr-2020
  % Well Effect: 23.90% and 29.75%
0.0298215 uM, minus efflux inhibitor, EC50 run 24-Apr-2020
  % Well Effect: -2.80% and 5.98%
0.0300105 uM, minus efflux inhibitor, EC50 run 11-Apr-2020
  % Well Effect: 22.27% and 25.51% and 18.77% and 17.89%
0.03125 uM, minus efflux inhibitor, EC50 run 30-Apr-2020
  % Well Effect: 10.60% and 5.67%
0.0625 uM, minus efflux inhibitor, EC50 run 30-Apr-2020
  % Well Effect: 34.90% and 38.53%
0.0944446 uM, minus efflux inhibitor, EC50 run 17-Apr-2020
  % Well Effect: 86.84% and 95.70%
0.0944446 uM, minus efflux inhibitor, EC50 run 24-Apr-2020
  % Well Effect: 19.60% and 23.25%
0.0948933 uM, minus efflux inhibitor, EC50 run 11-Apr-2020
  % Well Effect: 74.74% and 86.04% and 87.19% and 85.97%
0.09491 uM, minus efflux inhibitor, EC50 run 3-Apr-2020
  % Well Effect: 60.58% and 66.48% and 51.57% and 67.27%
0.299106 uM, minus efflux inhibitor, EC50 run 17-Apr-2020
  % Well Effect: 107.11% and 115.95%
0.299106 uM, minus efflux inhibitor, EC50 run 24-Apr-2020
  % Well Effect: 59.17% and 71.11%
0.300053 uM, minus efflux inhibitor, EC50 run 11-Apr-2020
  % Well Effect: 109.88% and 116.26% and 114.19% and 115.61%
0.300105 uM, minus efflux inhibitor, EC50 run 3-Apr-2020
  % Well Effect: 99.66% and 103.56% and 105.08% and 101.55%
0.5 uM, minus efflux inhibitor, EC50 run 30-Apr-2020
  % Well Effect: 102.45% and 101.06%
0.947269 uM, minus efflux inhibitor, EC50 run 17-Apr-2020
  % Well Effect: 102.69% and 111.34%
0.947269 uM, minus efflux inhibitor, EC50 run 24-Apr-2020
  % Well Effect: 73.36% and 89.87%
0.948767 uM, minus efflux inhibitor, EC50 run 11-Apr-2020
  % Well Effect: 109.36% and 109.78% and 108.04% and 112.87%
0.948933 uM, minus efflux inhibitor, EC50 run 3-Apr-2020
  % Well Effect: 100.40% and 104.08% and 100.39% and 101.88%
1 uM, minus efflux inhibitor, EC50 run 30-Apr-2020
  % Well Effect: 105.73% and 102.25%
3 uM, minus efflux inhibitor, EC50 run 11-Apr-2020
  % Well Effect: 107.90% and 109.07% and 108.64% and 109.54%
3 uM, minus efflux inhibitor, EC50 run 17-Apr-2020
  % Well Effect: 101.53% and 109.98%
3 uM, minus efflux inhibitor, EC50 run 24-Apr-2020
  % Well Effect: 75.89% and 83.80%
3 uM, plus 0.5 uM efflux inhibitor, EC50 run 22-may-2020
  % Well Effect: 87.68%
3 uM, plus 0.5 uM efflux inhibitor, EC50 run 24-Apr-2020
  % Well Effect: 59.97%
3.00053 uM, minus efflux inhibitor, EC50 run 3-Apr-2020
  % Well Effect: 99.82% and 106.83% and 102.14% and 104.18%
9.48767 uM, minus efflux inhibitor, EC50 run 3-Apr-2020
  % Well Effect: 101.96% and 104.70% and 102.25% and 105.36%
30 uM, minus efflux inhibitor, EC50 run 3-Apr-2020
  % Well Effect: 102.99% and 107.66% and 105.96% and 105.84%
